Results published in patent US8263574B2, “Topical formulations for the treatment of depression with S adenosyl methionine” (priority 2004, dated 2012).
Where “and” joins values, the source holds several entries; their conditions need not be identical. Equal entries are not always repeated. Where two headings read alike, the source gives them in different places.

Experiments:
[1] = system: major depressive disorder; details: cited from earlier work
Major Depression = experiment: Child case studies: oral SAM-e in Major Depression (Children's Depression Inventory, clinical report); format: in vivo, human
Source text: Two girls were brought in for a consult by a pediatrician and their spouse, a nutritionist. Both parents had studied SAM-e, and preferred “a trial” before traditional anti-depressants.
Case 1. A child (34 kg.) developed increased irritability, boredom, eccentric crying, withdrawal, decreased appetite, middle insomnia, new school performance problems and sadness. They began to discuss death themes and became preoccupied with heaven, despite no new exposures to these topics. They met DSM-IV TR criteria for Major Depression, had no significant stressors in their life, and on the Children's Depression Inventory (CDI) scored a 34.
They were placed on a 200 mg SAM-e enteric-coated tablet each morning, before eating for a week. Subsequently, the dose was raised to 400 mg. […] Improvement began after 4 days on 400 mg. At three weeks, it was increased to 600 mg a day, with rapid and complete resolution of their depressive symptoms in 2 days. […] Their CDI fell to a 4. They have been on this dose for over 6 months.
Case 2. child one (24 kg.) developed new problems with crying, sadness, decreased play, and an inability to be consoled. They made new negative identity comments, i.e., “I'm no good Mommy.” The child was well liked by adults and peers, but felt “no one liked them,” They also began saying they “hated school” even though they were in the top ⅓rd of their class. Their symptoms began 4-5 months after their sibling's MD began. They met DSM-IV TR criteria for Major Depression and on the Children's Depression Inventory scored 29.
Their CDI decreased to 6 and 7. After 3 months, they were “a little sad like before” per their parent, and was increased to 200 mg each am and afternoon with a CDI of 6. They have remained on this dose for over 6 months.
Case 3. A person (86 kg.), unrelated to the girls described above, was diagnosed with Major Depression and Oppositional Defiant Disorder based on DSM-IV TR criteria from a clinical interview with parents and patient. They refused diagnostic scales. Their parents reported a 1½ year history of irritability, boredom, reactivity, decreased interest in all activities but computer games, sadness, excess sleep, fatigue, hopelessness, and trouble concentrating. […] Extensive laboratory testing and family doctor physical exam were negative.
Their mood and function improved to their baseline over 1-2 weeks according to parents, teacher and psychiatrist. Yet they had residual oppositionality. After 2-3 months the youth stopped their SAM-e due to “being sick of all the pills.” They had been taking […] tablets daily. They relapsed over the course of 3 weeks to “½” […] initial baseline depression per patient and parents. Again, they refused quantitative depression scales. Behaviorally, they stopped returning calls, became bored again, and had decreased homework performance with no identifiable new stressors. Restoring the SAM-e to three 400 mg tablets—800 mg per am and 400 after school—restored them to baseline in 5-8 days from parent report confirmed with diagnostic interview. They have remained on this dosing for approximately 22 weeks.

depressive symptoms = details: 195 patients, 400 mg intramuscular for 15 days; cited from earlier work
[2] = infusions of 800 mg, placebo-controlled crossover; cited from earlier work
[3] = system: patients with Major Depression; details: cited from earlier work

For `C[S+](CC[C@H](N)C(=O)O)C[C@H]1O[C@@H](n2cnc3c(N)ncnc32)[C@H](O)[C@@H]1O` (some centres unmarked) [SAM-e, S-adenosyl methionine], the “efficacy in major depressive disorder” value ([1]; 13 trials vs placebo, 19 trials vs tricyclic antidepressants, more than 1,400 patients) is listed as “effective”, the “efficacy in major depression versus placebo and tricyclics” value ([1]; intravenous and intramuscular preparations, 14 double-blind European studies) is listed as “more effective than placebo and comparable to imipramine, amitriptyline and clomipramine” and the “response over 3 weeks” value (Major Depression; Case 1, oral 400 mg) is listed as “modest improvement”. For the same compound, the “time until improvement began” value (Major Depression; Case 1, oral 400 mg) was 4 days, the side effects (Major Depression; Case 1, oral 600 mg a day) was “no signs of mania, anxiety, insomnia, diarrhea, abdominal pain or nausea” and the “time to complete resolution of depressive symptoms” value (Major Depression; Case 1, oral 600 mg a day) was 2 days. For the same compound, the “Children's Depression Inventory (CDI) on treatment” value (from here on “Children's Depression Inventory”) (Major Depression; Case 1, oral 600 mg a day, CDI before treatment 34) was 4, the “time to signs of improvement” value (Major Depression; Case 2 (person one), oral 200 mg) was 2 days and the side effects (Major Depression; Case 2, oral 200 mg) was “no side effects”. For the same compound, the “time until at baseline” value (Major Depression; Case 2, oral 200 mg) was 11 days, the “Children's Depression Inventory” value (Major Depression; Case 2, oral 200 mg each am and afternoon, after 3 months) was 6 and the “Children's Depression Inventory” value (Major Depression; Case 2, oral 200 mg, CDI before treatment 29) was 6 and 7. The “time until restored to baseline after restart” value (Major Depression; Case 3, oral 800 mg per am and 400 after school) was 5 to 8 days, the “side effects after dose reduction” value (Major Depression; Case 3, oral 1400 mg) was “loss of both side effects” and the “time until mood and function improved to baseline” value (Major Depression; Case 3, oral 1400 mg) was 1-2 weeks. The side effects (Major Depression; Case 3, oral 1800 mg) was “slight tremor and slight anxiety”, the “time course of relapse after stopping SAM-e” value (Major Depression; Case 3, relapse to "½" initial baseline depression) was 3 weeks and the “self-reported effect on depression” value (Major Depression; both parents of Cases 1 and 2, 1200-1400 mg per day) was “full remission of their depression”. The “effect on depressive symptoms” value (depressive symptoms) was “remission on both day 7 and 15”, the “EEG / ERP antidepressant effects” value [2] was “effects greater than placebo” and the “efficacy compared with imipramine” value ([3]; SAM-e intramuscular 400 mg/d vs. oral IMI 150 mg/d, 4 weeks) was “did not differ significantly on any efficacy measure”. The “tolerability compared with imipramine” value ([3]; both studies) was “better tolerated than IMI” and the “efficacy compared with imipramine” value ([3]; intramuscular (400 mg) and oral SAM-e (1600 mg, 6 weeks) in adults) was “comparable to 150 mg of imipramine (IMI)”.
